Where two headings read alike, the source gives them in different places.
Experiments:
Assay in all cases: selectivity profiling in a panel of 340 wild-type kinases (Reaction Biology Europe)
Type in all cases: binding
340 wild-type kinases [1] = target: T1, 340 wild-type kinases (Homo sapiens, UniProt Q08881)
T1 construct: purchased Reaction Biology Europe
T1 sequence (Q08881 1-620): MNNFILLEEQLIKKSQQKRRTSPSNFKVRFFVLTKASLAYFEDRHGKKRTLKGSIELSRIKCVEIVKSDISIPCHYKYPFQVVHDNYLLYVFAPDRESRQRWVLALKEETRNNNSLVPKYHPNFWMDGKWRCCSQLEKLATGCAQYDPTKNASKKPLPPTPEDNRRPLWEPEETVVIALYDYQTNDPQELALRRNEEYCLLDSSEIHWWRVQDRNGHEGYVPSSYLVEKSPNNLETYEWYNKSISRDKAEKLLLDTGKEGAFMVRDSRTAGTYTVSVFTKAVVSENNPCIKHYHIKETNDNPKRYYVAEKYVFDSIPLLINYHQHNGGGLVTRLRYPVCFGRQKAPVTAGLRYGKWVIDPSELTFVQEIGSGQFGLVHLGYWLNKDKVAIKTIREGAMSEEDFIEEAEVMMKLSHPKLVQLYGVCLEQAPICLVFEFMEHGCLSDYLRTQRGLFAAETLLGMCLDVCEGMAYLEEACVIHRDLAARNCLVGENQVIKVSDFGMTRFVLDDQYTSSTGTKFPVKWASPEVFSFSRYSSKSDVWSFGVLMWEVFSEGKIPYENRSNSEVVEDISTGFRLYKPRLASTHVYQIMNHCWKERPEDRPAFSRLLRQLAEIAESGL

340 wild-type kinases [2] = target: T2, 340 wild-type kinases (Homo sapiens, UniProt Q8IYT8)
T2 construct: purchased Reaction Biology Europe
T2 sequence (Q8IYT8 1-1036): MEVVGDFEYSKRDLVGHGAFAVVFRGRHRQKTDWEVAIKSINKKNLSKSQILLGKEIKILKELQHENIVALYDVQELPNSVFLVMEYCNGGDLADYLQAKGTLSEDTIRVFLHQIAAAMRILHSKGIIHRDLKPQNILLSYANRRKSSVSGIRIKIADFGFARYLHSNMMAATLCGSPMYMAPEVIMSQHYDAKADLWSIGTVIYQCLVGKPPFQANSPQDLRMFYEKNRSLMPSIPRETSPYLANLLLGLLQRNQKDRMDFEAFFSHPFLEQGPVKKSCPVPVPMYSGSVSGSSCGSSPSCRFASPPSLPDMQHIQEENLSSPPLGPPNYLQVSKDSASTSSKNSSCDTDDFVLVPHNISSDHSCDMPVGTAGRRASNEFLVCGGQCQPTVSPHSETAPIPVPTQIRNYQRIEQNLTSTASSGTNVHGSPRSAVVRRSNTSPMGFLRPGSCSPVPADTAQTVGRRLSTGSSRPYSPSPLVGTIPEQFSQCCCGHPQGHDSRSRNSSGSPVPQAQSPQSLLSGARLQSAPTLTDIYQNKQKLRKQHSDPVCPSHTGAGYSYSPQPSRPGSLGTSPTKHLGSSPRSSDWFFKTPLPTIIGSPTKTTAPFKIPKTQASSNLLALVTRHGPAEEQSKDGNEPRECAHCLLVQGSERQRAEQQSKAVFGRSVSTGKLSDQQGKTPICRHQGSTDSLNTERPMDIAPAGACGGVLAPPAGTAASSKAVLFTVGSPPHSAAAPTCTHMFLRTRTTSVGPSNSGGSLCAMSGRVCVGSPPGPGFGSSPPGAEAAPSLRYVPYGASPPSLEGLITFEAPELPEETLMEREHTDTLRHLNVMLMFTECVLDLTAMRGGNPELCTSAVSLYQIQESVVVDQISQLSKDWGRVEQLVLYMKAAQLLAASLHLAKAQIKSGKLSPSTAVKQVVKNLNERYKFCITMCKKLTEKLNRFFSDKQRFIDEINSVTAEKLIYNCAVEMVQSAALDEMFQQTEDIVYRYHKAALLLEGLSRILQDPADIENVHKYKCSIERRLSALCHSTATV

340 wild-type kinases [3] = target: T3, 340 wild-type kinases (Homo sapiens, UniProt Q9UL54)
T3 construct: purchased Reaction Biology Europe
T3 sequence (Q9UL54 1-1235): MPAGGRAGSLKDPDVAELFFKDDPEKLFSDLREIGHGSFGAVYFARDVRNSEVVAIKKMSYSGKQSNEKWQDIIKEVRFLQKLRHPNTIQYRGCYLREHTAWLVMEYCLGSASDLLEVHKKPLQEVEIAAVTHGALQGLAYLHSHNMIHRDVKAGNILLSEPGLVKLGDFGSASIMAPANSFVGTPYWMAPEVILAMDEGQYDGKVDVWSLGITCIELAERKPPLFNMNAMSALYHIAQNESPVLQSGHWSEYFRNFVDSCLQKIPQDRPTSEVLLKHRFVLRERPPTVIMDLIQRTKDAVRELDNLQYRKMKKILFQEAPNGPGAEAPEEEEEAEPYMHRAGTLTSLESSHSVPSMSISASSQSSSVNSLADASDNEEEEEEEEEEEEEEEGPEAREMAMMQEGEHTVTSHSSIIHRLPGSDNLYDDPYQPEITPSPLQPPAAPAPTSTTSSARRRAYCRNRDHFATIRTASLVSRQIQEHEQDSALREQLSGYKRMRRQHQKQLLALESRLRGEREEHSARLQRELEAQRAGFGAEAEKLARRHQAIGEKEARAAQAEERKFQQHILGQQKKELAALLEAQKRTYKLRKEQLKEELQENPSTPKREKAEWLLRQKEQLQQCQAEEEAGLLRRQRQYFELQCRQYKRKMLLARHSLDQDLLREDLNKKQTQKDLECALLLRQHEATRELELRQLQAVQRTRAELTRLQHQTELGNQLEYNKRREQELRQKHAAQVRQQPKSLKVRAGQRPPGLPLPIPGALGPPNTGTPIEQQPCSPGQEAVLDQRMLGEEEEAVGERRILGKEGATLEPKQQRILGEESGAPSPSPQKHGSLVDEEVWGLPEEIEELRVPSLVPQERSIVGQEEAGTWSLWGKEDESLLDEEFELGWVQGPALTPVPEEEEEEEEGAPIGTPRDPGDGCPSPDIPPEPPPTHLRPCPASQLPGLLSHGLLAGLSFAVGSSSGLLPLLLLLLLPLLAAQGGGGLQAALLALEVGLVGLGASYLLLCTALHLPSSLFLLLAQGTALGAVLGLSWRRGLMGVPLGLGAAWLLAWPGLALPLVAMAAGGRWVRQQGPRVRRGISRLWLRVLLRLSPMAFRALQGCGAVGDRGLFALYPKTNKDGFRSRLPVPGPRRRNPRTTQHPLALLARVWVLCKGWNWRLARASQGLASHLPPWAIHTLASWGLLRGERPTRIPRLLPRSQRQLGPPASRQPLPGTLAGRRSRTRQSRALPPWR

## CNC(=O)c1ccc2c(c1)C(=O)c1ccc(Nc3ccc(F)c(NC(=O)C4CC4)c3)cc1CC2 [Compound 2015]
340 wild-type kinases [1]; 0.2 µM 2015, read-out: ITK residual activity
  remaining activity at 0.2 µM: 89.4%
340 wild-type kinases [1]; 1 µM 2015, read-out: ITK residual activity
  remaining activity at 1 µM: 87%
340 wild-type kinases [1]; ITK, 0.2 µM, read-out: residual activity
  remaining activity at 0.2 µM: 89.4%
340 wild-type kinases [1]; ITK, 1 µM, read-out: residual activity
  remaining activity at 1 µM: 87%
340 wild-type kinases [2]; 0.2 µM 2015, read-out: ULK2 residual activity
  remaining activity at 0.2 µM: 105%
340 wild-type kinases [2]; 1 µM 2015, read-out: ULK2 residual activity
  remaining activity at 1 µM: 87.8%
340 wild-type kinases [2]; ULK2, 0.2 µM, read-out: residual activity
  remaining activity at 0.2 µM: 105%
340 wild-type kinases [2]; ULK2, 1 µM, read-out: residual activity
  remaining activity at 1 µM: 87.8%
340 wild-type kinases [3]; 0.2 µM 2015, read-out: TAOK2 residual activity
  remaining activity at 0.2 µM: 102%
340 wild-type kinases [3]; 1 µM 2015, read-out: TAOK2 residual activity
  remaining activity at 1 µM: 103%
340 wild-type kinases [3]; TAOK2, 0.2 µM, read-out: residual activity
  remaining activity at 0.2 µM: 102%
340 wild-type kinases [3]; TAOK2, 1 µM, read-out: residual activity
  remaining activity at 1 µM: 103%

From PMC11864979, “First-in-class ultralong-target-residence-time p38α inhibitors as a mitosis-targeted therapy for colorectal cancer” (Nature Cancer, 2025)
